Assay results from ChEMBL document CHEMBL1201862, “PubChem BioAssay data set” (2004).
Counter-ions that a name gives are not always drawn. Activity calls are given as the source filed them. Rule as the data show it, for most assays here: actives have a measured EC50 and inactives only a lower limit. Non-standard residues stand in square brackets, D forms with d. Residues, ends and D or L forms follow the SMILES beside them. ξ: configuration not given here. Pen = CC(C)(S)[C@H](N)C(=O)O; ξL = CC(C)CC(N)C(=O)O

Tests used:
[1] = Luminescence Cell-Based Dose Confirmation HTS to Identify Inhibitors of Platelet Dense Granule Release. [Related pubchem assays: 1663 (Primary HTS), 1678 (Summary of Project)]; type: functional
[2] = molecular target: Luciferin 4-monooxygenase (Photinus pyralis, UniProt P08659); assay: firefly luciferase enzyme inhibitors, dose response, biochemical, luminescence (AID 1891)
Luciferin 4-monooxygenase, sequence (P08659 whole entry): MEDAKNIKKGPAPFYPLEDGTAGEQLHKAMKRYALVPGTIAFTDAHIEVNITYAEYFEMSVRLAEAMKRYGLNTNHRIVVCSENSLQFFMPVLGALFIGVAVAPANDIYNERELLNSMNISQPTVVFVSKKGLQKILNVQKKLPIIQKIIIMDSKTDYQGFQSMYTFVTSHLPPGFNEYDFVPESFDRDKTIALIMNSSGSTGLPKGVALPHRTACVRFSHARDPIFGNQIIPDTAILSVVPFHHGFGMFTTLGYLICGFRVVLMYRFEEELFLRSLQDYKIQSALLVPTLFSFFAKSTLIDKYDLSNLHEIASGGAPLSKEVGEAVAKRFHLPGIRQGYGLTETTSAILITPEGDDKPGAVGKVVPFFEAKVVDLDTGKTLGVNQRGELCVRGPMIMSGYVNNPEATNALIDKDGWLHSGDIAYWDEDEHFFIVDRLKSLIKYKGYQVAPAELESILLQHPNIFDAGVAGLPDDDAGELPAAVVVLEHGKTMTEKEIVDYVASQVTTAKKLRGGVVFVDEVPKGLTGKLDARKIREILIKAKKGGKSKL

SN12K1 = assay: cells; type: functional; settings: Homo sapiens
P388 = assay: cells; type: functional; settings: Mus musculus
P388/ADR = assay: cells; type: functional; settings: Mus musculus
[3] = molecular target: T1, Heat shock factor protein 1 (Mus musculus, UniProt P38532); assay: HSF1 potentiators in luciferase reporter cells, confirmation, cell-based, NIH3T3, luminescence, dose retest (AID 435004); type: functional;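 also: stress induced by proteasome inhibitor MG132 added 30 min after compound; luciferase reporter driven by HSF1 response element in NIH3T3 cells; actives raise luminescence as potentiators of the MG132 stress response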
T1 sequence (P38532 whole entry): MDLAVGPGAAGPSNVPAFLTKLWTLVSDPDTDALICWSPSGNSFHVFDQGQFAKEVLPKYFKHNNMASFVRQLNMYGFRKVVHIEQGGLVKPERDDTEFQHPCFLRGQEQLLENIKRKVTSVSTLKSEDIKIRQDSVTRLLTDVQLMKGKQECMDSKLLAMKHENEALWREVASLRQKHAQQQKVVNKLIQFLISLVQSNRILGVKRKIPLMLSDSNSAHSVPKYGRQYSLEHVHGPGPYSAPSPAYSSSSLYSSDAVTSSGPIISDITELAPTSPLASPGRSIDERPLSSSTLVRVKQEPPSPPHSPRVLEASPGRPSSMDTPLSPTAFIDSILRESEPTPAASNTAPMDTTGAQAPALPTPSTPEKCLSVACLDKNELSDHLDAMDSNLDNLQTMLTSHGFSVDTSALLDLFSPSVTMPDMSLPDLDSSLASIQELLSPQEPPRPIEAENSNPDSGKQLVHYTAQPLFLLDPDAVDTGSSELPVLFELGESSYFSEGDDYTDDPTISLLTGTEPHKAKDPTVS

[4] = Luminescence Cell-Based Dose Confirmation HTS to Identify Activators of 5'UTR Stem-Loop Driven Alpha-Synuclein mRNA Translation in H4 Neuroglioblastoma Cells. [Related pubchem assays: 1829 (Project Summary), 1814 (Primary HTS)]; type: functional
H4 = assay: Luminescence Cell-Based Dose Response HTS to Identify Activators of 5'UTR Stem-Loop Driven Prion Protein mRNA Translation in H4 Neuroglioblastoma Cells. [Related pubchem assays: 1829 (Project Summary), 1814 (Primary HTS)]; type: functional; settings: Homo sapiens
[5] = Luminescence Cell-Based Dose Response HTS to Identify Activators of Luciferase Translation or Activity in H4 […] Cells. [Related pubchem assays: 1829 (Project Summary), 1814 (Primary HTS)]; type: functional
INS1 = assay: beta cell apoptosis inhibitors, cytokine rescue, dose response, luminescence, retest (AID 449756); type: functional, cell-based; settings: Rattus norvegicus;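 also: cell death triggered by IL-1 beta plus TNF-alpha plus IFN-gamma mixture; protective hits raise ATP signal compared with cytokine alone wells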
Protein skinhead-1 = molecular target: T2, Protein skinhead-1 (Caenorhabditis elegans, UniProt P34707); type: functional
T2 sequence (P34707 whole entry): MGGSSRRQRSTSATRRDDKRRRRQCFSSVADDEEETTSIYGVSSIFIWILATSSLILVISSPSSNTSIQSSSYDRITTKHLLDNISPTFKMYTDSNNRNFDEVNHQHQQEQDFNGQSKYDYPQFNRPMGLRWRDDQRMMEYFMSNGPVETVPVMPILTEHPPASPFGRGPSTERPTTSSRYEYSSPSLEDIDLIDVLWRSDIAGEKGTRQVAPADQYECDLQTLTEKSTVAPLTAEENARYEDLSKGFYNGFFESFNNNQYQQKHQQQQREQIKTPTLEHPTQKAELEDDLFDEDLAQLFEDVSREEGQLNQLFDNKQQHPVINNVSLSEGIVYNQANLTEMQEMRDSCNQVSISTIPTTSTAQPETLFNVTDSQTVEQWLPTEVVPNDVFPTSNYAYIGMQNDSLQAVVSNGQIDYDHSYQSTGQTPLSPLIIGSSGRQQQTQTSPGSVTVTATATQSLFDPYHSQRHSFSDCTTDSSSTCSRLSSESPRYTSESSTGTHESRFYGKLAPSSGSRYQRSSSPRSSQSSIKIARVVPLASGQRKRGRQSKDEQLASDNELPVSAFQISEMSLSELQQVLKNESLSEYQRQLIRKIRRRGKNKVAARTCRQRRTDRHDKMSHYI

[6] = molecular target: T1, Heat shock factor protein 1; assay: inhibition of MG132-induced HSE-luciferase signal, confirmation, cell-based, NIH3T3, luminescence, dose retest (AID 2382); type: functional;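 also: NIH3T3 fibroblasts with HSF1-driven luciferase reporter stressed by proteasome inhibitor MG132; luminescence from HSF1-driven luciferase expression after 8 hours of MG132 stress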

Structure (SMILES): COc1cc2cc(CN(CCO)S(=O)(=O)c3ccccc3Cl)c(O)nc2cc1OC
- EC50 [1]: > 112 µM (not active)
- EC50 [2]: > 112 µM (not active)

Structure (SMILES): CCOC(=O)CNC(=O)NC12CC3CC(CC(C3)C1)C2
- GI50 (SN12K1): 141 µM (inactive)
- GI50 (P388): 63.8 µM (inactive)
- GI50 (P388/ADR): 225 µM (inactive)

Structure (SMILES): c1ccc(C(c2ccccc2)N2CCN(Cc3nnnn3C3CCCC3)CC2)cc1
- EC50 [1]: > 112 µM (not active)
- EC50 [2]: > 112 µM (not active)

Structure (SMILES): Cc1ccccc1N(C(=O)c1csnn1)C(C(=O)NC(C)(C)C)c1ccncc1 (stereo unspecified)
- EC50 [3]: > 260 µM (inactive)

Structure (SMILES): CCCN1CCC(=O)N([C@H](CSc2ccc(C)cc2)c2ccccc2)CC1
- EC50 [4]: 8.36 µM (active)
- EC50 (H4): 7.04 µM (active)
- EC50 [5]: 5.58 µM (active)

Structure (SMILES): CSc1nc(NC(C)(C)C)nc(Oc2ccc(O)nn2)n1
- EC50 [3]: > 260 µM (inactive)

Structure (SMILES): c1ccc2c(c1)SCCc1cn[nH]c1-2
- GI50 (SN12K1): > 100 µM (inactive)
- GI50 (P388): > 100 µM (inactive)
- GI50 (P388/ADR): > 100 µM (inactive)

Structure (SMILES): CN1/C(=C\C(=O)C[n+]2cccc(Br)c2)C(C)(C)c2ccccc21
- AC50 (INS1): 5.62 µM (active)

Structure (SMILES): C[S+](C)CC1OC(n2cnc3c(N)ncnc32)C(O)C1O (stereo unspecified)
- GI50 (SN12K1): > 225 µM (inactive)
- GI50 (P388): > 225 µM (inactive)
- GI50 (P388/ADR): > 22.5 µM (inactive)

Structure (SMILES): CSCC[C@H](NC(=O)C(CC(C)C)NC(=O)[C@H](Cc1c[nH]cn1)NC(=O)CNC(=O)[C@@H](NC(=O)[C@@H](C)NC(=O)[C@H](Cc1c[nH]c2ccccc12)NC(=O)[C@H](CCC(N)=O)NC(=O)[C@@H](N)CC(N)=O)C(C)(C)SC)C(N)=O (stereo partly specified) (H-NQW[dA][Pen](Me)GH[ξL]M-NH2)
- GI50 (SN12K1): > 100 µM (inactive)
- GI50 (P388): > 100 µM (inactive)
- GI50 (P388/ADR): > 100 µM (inactive)

Structure (SMILES): CN(C)CCOc1cc2c(c3ccccc13)-c1ccccc1C2=O
- GI50 (SN12K1): 0.589 µM (active)
- GI50 (P388): 0.0435 µM (active)
- GI50 (P388/ADR): 0.36 µM (active)

Structure (SMILES): COc1ccc(NC(=O)c2cc(S(=O)(=O)N3CCc4ccccc43)cn2C)cc1OC
- EC50 [1]: > 112 µM (not active)
- EC50 [2]: > 112 µM (not active)

Structure (SMILES): O=C(CSc1nc2nccnc2c(=O)n1Cc1cccs1)Nc1ccccc1F
- EC50 [3]: > 260 µM (inactive)

Structure (SMILES): COc1ccccc1CNC(=O)c1ccc(NS(=O)(=O)c2cccs2)cc1
- EC50 [3]: > 260 µM (inactive)

Structure (SMILES): CCc1ccc(S(=O)(=O)NCCc2cn3ccsc3n2)s1
- EC50 [1]: > 112 µM (not active)
- EC50 [2]: > 112 µM (not active)

Structure (SMILES): CC(C)(C)c1cccc(/C=N/O)c1O
- EC50 [3]: > 260 µM (inactive)

Structure (SMILES): Cc1ccccc1C(=O)O/N=C1\CCS(=O)(=O)c2sccc21
- EC50 [3]: 0.943 µM (active)

Structure (SMILES): CCCCCCSc1nc(N)nc2nc[nH]c12
- GI50 (SN12K1): 38.7 µM (inactive)
- GI50 (P388): > 40.8 µM (inactive)
- GI50 (P388/ADR): 12.7 µM (inactive)

Structure (SMILES): O=[N+]([O-])c1ccc(N2CCCC2)c2ccncc12
- IC50 (Protein skinhead-1): > 100 µM (inactive)
- EC50 [6]: 31.2 µM (active)

Structure (SMILES): CC1=Nc2cc(C(=O)NCC3CCCO3)ccc2Sc2ccc(Br)cc21 (stereo unspecified)
- EC50 [4]: > 120 µM (not active)
- EC50 [6]: > 195 µM (not active)
- EC50 (H4): 17.8 µM (active)
- EC50 [5]: > 120 µM (not active)

Structure (SMILES): NC(=O)c1ccc(NC(=O)CC23CC4CC(CC(Br)(C4)C2)C3)cc1
- EC50 [3]: > 260 µM (inactive)

Structure (SMILES): O=C1CN2Cc3c(ccc(Cl)c3Cl)N=C2N1 [ANAGRELIDE HYDROCHLORIDE]
- EC50 [1]: 0.722 µM (active)
- EC50 [2]: > 112 µM (not active)

Structure (SMILES): Nc1ccc2c(Cl)cc(Cl)cc2c1
- IC50 (Protein skinhead-1): 22.7 µM (active)
